Data as given in US20090098050A1, “CALCIUM BINDING PEPTIDES” (THE REGENTS OF THE UNVERSITY OF CALIFORNIA, priority 2005, published 2009).

Key:
[1] = Nucleation of hydroxyapatite on tooth enamel and dentin (SEM); set-up: species or system human; conditions: 12.5 μM peptide, SBFn 4 hours then SBFg
Procedure: FIG. 5: Nucleation of hydroxyapatite on enamel (top) and dentin (bottom) surfaces. Surfaces were prepared and treated as described in Example 6 and as indicated by the labels, followed by imaging using Scanning Electron Microscopy. The upper group (top two rows) represents enamel samples, while the lower group (bottom two rows) represents dentin samples. Within each group, the top row represents samples that were not demineralized prior to treatment, and the bottom row represents samples that were demineralized by treatment with phosphoric acid. Scanning Electron Micrographs are shown, scale bars=[…]. Left column: samples that were not exposed to any treatment prior to nucleation and crystal growth. Center column: samples that were exposed to buffer only prior to nucleation and crystal growth. Right column: samples that were exposed to 12.5 μM 8DSS peptide prior to nucleation and crystal growth. Crystal growth indicates early nucleation. To determine whether applying DSS to various preparations of tissue promoted HA nucleation, which could ultimately lead to tissue remineralization, sagittally sectioned adult human teeth (obtained after extraction during normal clinical practice) were polished using a Streurs grinding wheel, and prepared for nucleation experiments. […]

[2] = Binding of fluorescein-labeled peptides to hydroxyapatite nanocrystals (Langmuir isotherm); conditions: fluorescein-labeled peptide 0-100 μM, 0.3 mg hydroxyapatite, ten minutes, Langmuir fit
Procedure: FIG. 1: Binding affinities of DSS and DSS variant peptides for hydroxyapatite and tooth surfaces. A-C. Fluorescein-labeled peptides at concentrations ranging from 0-100 μM were incubated with 0.3 mg of hydroxyapatite nanocrystals (specific surface area=100 m^2/g) for ten minutes, followed by removal of the hydroxyapatite by centrifugation. The amount of peptide in the mixture before and after hydroxyapatite removal was determined by Abs480. Isotherms were plotted and fit to the Langmuir equation to extract values for KA, a constant reflecting the affinity of the peptide for the hydroxyapatite surface. D. Sagitally sectioned human teeth were incubated with 12.5 μM 5(6) carboxyfluorescein-labeled 6DSS peptide for ten minutes, followed by rinsing. Peptide binding to tooth surfaces was visualized by Confocal Laser Scanning Microscopy (CLSM) using blue laser illumination (λA=488 nm) and a FITC emission filter. Left side, light colored region: dentin. Right side, dark colored region: enamel.
Four DSS peptides containing two (2DSS, SEQ ID NO:12), four (4DSS, SEQ ID NO:13), six (6DSS, SEQ ID NO:14), or eight(8DSS, SEQ ID NO:15) Asp-Ser-Ser (DSS) repeats were generated. Peptides were labeled with fluorescein, and various concentrations of the labeled peptides (0-100 μM) were mixed with a fixed amount (0.3 mg) of hydroxyapatite nanocrystals having a specific surface area of 100 m^2/g (Berkeley Advanced Biomaterials, Inc.). Samples were incubated for ten minutes, followed by removal of the hydroxyapatite by centrifugation. The amount of peptide in the mixture was measured both before and after hydroxyapatite removal by spectroscopic absorbance at 480 nm (the peak absorbance of the fluorescein label). The amount of peptide bound was calculated by comparing the ratio of the final (Af) and initial (Ai) absorbances to the initial concentration (P0) [Pbound=[…]]. Plots were generated illustrating the amount of peptide bound per m^2 of hydroxyapatite surface area versus concentration of unbound peptide at equilibrium. The resulting isotherms were fit to the Langmuir isotherm (x/m=(KANMaxCeq)/(1+KACeq)) (Calis 1995), which describes the binding activity of a molecule in terms of a combination of binding affinity (KA) and avidity (NMax). KA represents the affinity constant of the peptide for the hydroxyapatite surface. In this equation, x/m represents the molar amount of peptide bound per unit of hydroxyapatite surface area, NMax represents the maximum surface concentration (mol/m^2), and Ceq represents the molar concentration of unbound peptide at equilibrium. The Langmuir isotherm describes the binding of molecules to surfaces with the conditions that 1) all binding sites have the same affinity for the peptide, and 2) the peptide will form a monolayer on the surface but cannot accumulate to higher levels. The excellent fit of the Langmuir isotherm to the experimental data validates these conditions, and these affinity constants were used for comparisons between peptides.

[3] = Binding to inorganic phosphate precipitates (relative fluorescence); conditions: 12.5 μM labeled peptide, ten minutes, about 0.5% (w/v) salt
Procedure: FIG. 10: Relative levels of 8DSS peptide binding to various inorganic phosphate precipitates. 100 mM sodium phosphate (pH 7.5) was combined with 100 mM solutions of MgCl2, CaCl2, MnCl2, CoCl2, NiSO4, CuSO4, and SrCl2, respectively. Suspensions were made of each phosphate salt at a concentration of approximately 0.5% (w/v) in the presence of 12.5 μM 5(6)-carboxyfluorescein-labeled 8DSS peptide. After a ten minute incubation at room temperature, samples were washed and imaged by fluorescence microscopy. The intensity of the fluorescent staining of the inorganic phosphate particles in each sample was assessed by measuring the pixel intensity values using the GIMP (www.gimp.org) as described in Example 11. Normalized fluorescence values are plotted here. […] On the Y-axis, the relative fluorescence intensity values are plotted.
Phosphate salts of magnesium, calcium, manganese, cobalt, nickel, copper, and strontium were prepared by combining 100 mM sodium phosphate (pH 7.5) with 100 mM solutions of the chloride or sulfate salts of the aforementioned metal ions (MgCl2, CaCl2, MnCl2, CoCl2, NiSO4, CuSO4, and SrCl2, respectively). […] Each sample was incubated for ten minutes at room temperature, then washed twice with a solution of 50 mM HEPES pH 7.0 and 10 mM NaCl, resuspended in the same buffer, and imaged by fluorescence microscopy. […]

In the case of “8DSS: peptide containing eight Asp-Ser-Ser (DSS) repeats, SEQ ID NO:15 (DSSDSSDSSDSSDSSDSSDSSDSS; calcium binding peptide containing eight DSS repeats, 8DSS)”, the “Crystal growth (nucleation) on demineralized enamel” value [1] is reported as “significant crystal growth”, the “Crystal growth (nucleation) on nondemineralized dentin” value [1] is reported as “most significant growth” and the “KA, affinity constant of the peptide for the hydroxyapatite surface” value [2] is reported as 300,000 M^−1. For the same substance, the “Fluorescent staining of CaHPO4 and SrHPO4 aggregates” value [3] was “highest levels of staining” and the “Fluorescent staining of NiHPO4 aggregates” value [3] was “small level of staining”.
